{"source": "patent US10966426B2", "about": "“Herbicidal compositions comprising phenylpyrimidines” (BASF SE, priority 2016, dated 2021)", "assay_type_in_all_cases": "in vivo", "key": {"Polygonum aviculare": {"test_system": "Polygonum aviculare", "assay": "greenhouse post-emergence treatment, POLAV", "conditions": "Polygonum aviculare, 480 h, 20 DAT, POLAV, Table X4, read-out: % activity, solo application", "procedure": "(§1) The culture containers used were plastic pots containing loamy sand with approximately 3.0% of humus as substrate. The seeds of the test plants were sown separately for each species.\n(§2) For the post-emergence treatment, the test plants were grown to a plant height of from 3 to 15 cm, depending on the plant habit, and only then treated with the active compounds which had been suspended or emulsified in water. To this end, the test plants were either sown directly, and grown in the same containers, or they were first grown separately as seedlings and transplanted into the test containers a few days prior to treatment.\n(§3) Depending on the species, the plants were kept at 10-25° C. and 20-35° C., respectively.\n(§4) The test period extended over 2 to 4 weeks. During this time, the plants were tended and their response to the individual treatments was evaluated.\n(§5) Evaluation was carried out using a scale from 0 to 100. 100 means no emergence of the plants, or complete destruction of at least the above-ground parts, and 0 means no damage or normal course of growth. A good herbicidal activity is given at values of at least 70, and very good herbicidal activity is given at values of at least 85.\n(§6) The respective stated components A and B, and if appropriate, C were formulated as a 10% by weight strength emulsion concentrate and, with addition of the amount of solvent system, introduced into the spray liquor used for applying the active compound. In the examples, the solvent used was water.\n(§7) In the examples below, using the method of S. R. Colby (1967) “Calculating synergistic and antagonistic responses of herbicide combinations”, Weeds 15, p. 22ff., the value E, which is expected if the activity of the individual active compounds is only additive, was calculated. E=X+Y−(X·Y/100) where X=effect in percent using herbicide A at an application rate a; • Y=effect in percent using herbicide B at application rate b; • E=expected effect (in %) of herbicide A+herbicide B at application rates a+b."}, "Poa annua": {"test_system": "Poa annua", "assay": "greenhouse post-emergence treatment, POAAN", "conditions": "Poa annua, 480 h, read-out: % activity", "procedure": "as §1, §2, §3, §4, §5, §6, §7"}, "Avena fatua": {"test_system": "Avena fatua", "assay": "greenhouse post-emergence treatment, AVEFA", "conditions": "Avena fatua, 480 h, 20 DAT, AVEFA, Table X4, read-out: % activity, solo application", "method_in_brief": "(§8)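 Pot trial in loamy sand with about 3.0% humus; plants sown in place or transplanted as seedlings a few days before treatment, kept at 10-25° C or 20-35° C by species, water as solvent. Damage scored 0 (none) to 100 (full destruction) over 2 to 4 weeks; combination expectation by Colby, E=X+Y−(X·Y/100).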"}, "Galium aparine": {"test_system": "Galium aparine", "assay": "greenhouse post-emergence treatment, GALAP", "conditions": "Galium aparine, 480 h", "procedure": "as §1, §2, §3, §4, §5, §6, §7"}, "Bromus sterilis": {"test_system": "Bromus sterilis", "assay": "greenhouse post-emergence treatment, BROST", "conditions": "Bromus sterilis, 480 h, read-out: % activity", "method_in_brief": "as §8"}, "Alopecurus myosuroides": {"test_system": "Alopecurus myosuroides", "assay": "greenhouse post-emergence treatment, ALOMY", "conditions": "Alopecurus myosuroides, 480 h, read-out: % activity", "procedure": "as §1\nTo this end, the test plants were either sown directly, and grown in the same containers, or they were first grown separately as seedlings and transplanted into the test containers a few days prior to treatment.\nas §3, §4, §5\nIn the examples, the solvent used was water.\nIn the examples below, using the method of S. R. Colby (1967) “Calculating synergistic and antagonistic responses of herbicide combinations”, Weeds 15, p. […] E=X+Y−(X·Y/100) where X=effect in percent using herbicide A at an application rate a; • Y=effect in percent using herbicide B at application rate b; • E=expected effect (in %) of herbicide A+herbicide B at application rates a+b."}, "Matricaria chamomilla": {"test_system": "Matricaria chamomilla", "assay": "greenhouse post-emergence treatment, MATCH", "conditions": "Matricaria chamomilla, 480 h, 31.25 gai/ha (EC 235 g/l), 20 DAT, MATCH, Table X4, read-out: % activity, solo application", "method_in_brief": "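Scale 0–100 damage rating (100 = complete destruction of above-ground parts, 0 = normal growth), read 2 to 4 weeks after post-emergence application of aqueous spray liquor to plants 3–15 cm tall.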"}, "Apera spica-venti": {"test_system": "Apera spica-venti", "assay": "greenhouse post-emergence treatment, APESV", "conditions": "APESV, bromoxynil solo 250 gai/ha, 20 DAT", "procedure": "as §1, §2, §3, §4, §5, §6, §7"}, "Digitaria sanguinalis": {"test_system": "Digitaria sanguinalis", "assay": "greenhouse post-emergence treatment, DIGSA", "conditions": "Digitaria sanguinalis, 480 h", "method_in_brief": "as §8"}, "Stellaria media": {"test_system": "Stellaria media", "assay": "greenhouse post-emergence treatment, STEME", "conditions": "Stellaria media, 480 h, read-out: % activity", "procedure": "as §1, §2, §3, §4, §5, §6, §7"}, "Lolium multiflorum": {"test_system": "Lolium multiflorum", "assay": "greenhouse post-emergence treatment, LOLMU", "conditions": "Lolium multiflorum, 480 h", "method_in_brief": "as §8"}, "Papaver rhoeas": {"test_system": "Papaver rhoeas", "assay": "greenhouse post-emergence treatment, PAPRH", "conditions": "Papaver rhoeas, 480 h, 31.25 gai/ha (EC 235 g/l), 20 DAT, PAPRH, Table X4, read-out: % activity, solo application", "procedure": "as §1, §2, §3, §4, §5, §6, §7"}, "Brachiaria decumbens": {"test_system": "Brachiaria decumbens", "assay": "greenhouse post-emergence treatment, BRADC", "conditions": "Urochloa decumbens, 480 h, read-out: % activity", "procedure": "as §1, §2, §3, §4, §5, §6, §7"}, "Setaria viridis": {"test_system": "Setaria viridis", "assay": "greenhouse post-emergence treatment, SETVI", "conditions": "Setaria viridis, 480 h, 20 DAT, SETVI, Table X4, read-out: % activity, solo application", "method_in_brief": "as §8"}}, "data": [{"smiles": "N#Cc1cc(Br)c(O)c(Br)c1", "note": "[Bromoxynil, bromoxynil]", "values": [{"measurement": "inhibition at 31.25 g/ha", "setting": "Polygonum aviculare; 31.25 gai/ha (EC 235 g/l)", "value": 65, "unit": "%"}, {"measurement": "inhibition at 62.5 g/ha", "setting": "Polygonum aviculare; 62.5 gai/ha (EC 235 g/l)", "value": 65, "unit": "%"}, {"measurement": "inhibition at 125 g/ha", "setting": "Polygonum aviculare; 125 gai/ha (EC 235 g/l)", "value": 65, "unit": "%"}, {"measurement": "pest or weed control at 31.25 g/ha", "setting": "Poa annua", "value": 0, "unit": "%"}, {"measurement": "pest or weed control at 62.5 g/ha", "setting": "Poa annua", "value": 0, "unit": "%"}, {"measurement": "pest or weed control at 125 g/ha", "setting": "Poa annua", "value": 0, "unit": "%"}, {"measurement": "pest or weed control at 250 g/ha", "setting": "Poa annua", "value": 0, "unit": "%"}, {"measurement": "inhibition at 31.25 g/ha", "setting": "Avena fatua; 31.25 gai/ha (EC 235 g/l)", "value": 0, "unit": "%"}, {"measurement": "inhibition at 125 g/ha", "setting": "Avena fatua; 125 gai/ha (EC 235 g/l)", "value": 0, "unit": "%"}, {"measurement": "inhibition at 62.5 g/ha", "setting": "Galium aparine; 62.5 gai/ha (EC 235 g/l), 20 DAT, GALAP, Table X4, read-out: % activity, solo application", "value": 65, "unit": "%"}, {"measurement": "inhibition at 125 g/ha", "setting": "Galium aparine; 125 gai/ha (EC 235 g/l), 20 DAT, GALAP, Table X4, read-out: % activity, solo application", "value": 80, "unit": "%"}, {"measurement": "pest or weed control at 31.25 g/ha", "setting": "Galium aparine; read-out: % activity", "value": 65, "unit": "%"}, {"measurement": "pest or weed control at 62.5 g/ha", "setting": "Galium aparine; read-out: % activity", "value": 65, "unit": "%"}, {"measurement": "pest or weed control at 125 g/ha", "setting": "Galium aparine; read-out: % activity", "value": 80, "unit": "%"}, {"measurement": "pest or weed control at 31.25 g/ha", "setting": "Bromus sterilis", "value": 0, "unit": "%"}, {"measurement": "pest or weed control at 62.5 g/ha", "setting": "Bromus sterilis", "value": 0, "unit": "%"}, {"measurement": "pest or weed control at 125 g/ha", "setting": "Bromus sterilis", "value": 0, "unit": "%"}, {"measurement": "pest or weed control at 250 g/ha", "setting": "Bromus sterilis", "value": 0, "unit": "%"}, {"measurement": "pest or weed control at 31.25 g/ha", "setting": "Alopecurus myosuroides", "value": 0, "unit": "%"}, {"measurement": "pest or weed control at 62.5 g/ha", "setting": "Alopecurus myosuroides", "value": 0, "unit": "%"}, {"measurement": "pest or weed control at 125 g/ha", "setting": "Alopecurus myosuroides", "value": 0, "unit": "%"}, {"measurement": "pest or weed control at 250 g/ha", "setting": "Alopecurus myosuroides", "value": 10, "unit": "%"}, {"measurement": "inhibition at 31.25 g/ha", "setting": "Matricaria chamomilla", "value": 55, "unit": "%"}, {"measurement": "% activity", "setting": "Apera spica-venti", "value": 0, "unit": "%"}, {"measurement": "inhibition at 31.25 g/ha", "setting": "Digitaria sanguinalis; 31.25 gai/ha (EC 235 g/l), 20 DAT, DIGSA, Table X4, read-out: % activity, solo application", "value": 0, "unit": "%"}, {"measurement": "inhibition at 62.5 g/ha", "setting": "Digitaria sanguinalis; 62.5 gai/ha (EC 235 g/l), 20 DAT, DIGSA, Table X4, read-out: % activity, solo application", "value": 0, "unit": "%"}, {"measurement": "inhibition at 125 g/ha", "setting": "Digitaria sanguinalis; 125 gai/ha (EC 235 g/l), 20 DAT, DIGSA, Table X4, read-out: % activity, solo application", "value": 0, "unit": "%"}, {"measurement": "inhibition at 250 g/ha", "setting": "Digitaria sanguinalis; 250 gai/ha (EC 235 g/l), 20 DAT, DIGSA, Table X4, read-out: % activity, solo application", "value": 0, "unit": "%"}, {"measurement": "pest or weed control at 31.25 g/ha", "setting": "Digitaria sanguinalis; read-out: % activity", "value": 0, "unit": "%"}, {"measurement": "pest or weed control at 62.5 g/ha", "setting": "Digitaria sanguinalis; read-out: % activity", "value": 0, "unit": "%"}, {"measurement": "pest or weed control at 125 g/ha", "setting": "Digitaria sanguinalis; read-out: % activity", "value": 0, "unit": "%"}, {"measurement": "pest or weed control at 250 g/ha", "setting": "Digitaria sanguinalis; read-out: % activity", "value": 0, "unit": "%"}, {"measurement": "pest or weed control at 31.25 g/ha", "setting": "Stellaria media", "value": 30, "unit": "%"}, {"measurement": "pest or weed control at 62.5 g/ha", "setting": "Stellaria media", "value": 50, "unit": "%"}, {"measurement": "pest or weed control at 125 g/ha", "setting": "Stellaria media", "value": 60, "unit": "%"}, {"measurement": "inhibition at 31.25 g/ha", "setting": "Lolium multiflorum; 31.25 gai/ha (EC 235 g/l), 20 DAT, LOLMU, Table X4, read-out: % activity, solo application", "value": 0, "unit": "%"}, {"measurement": "inhibition at 62.5 g/ha", "setting": "Lolium multiflorum; 62.5 gai/ha (EC 235 g/l), 20 DAT, LOLMU, Table X4, read-out: % activity, solo application", "value": 0, "unit": "%"}, {"measurement": "inhibition at 125 g/ha", "setting": "Lolium multiflorum; 125 gai/ha (EC 235 g/l), 20 DAT, LOLMU, Table X4, read-out: % activity, solo application", "value": 0, "unit": "%"}, {"measurement": "inhibition at 250 g/ha", "setting": "Lolium multiflorum; 250 gai/ha (EC 235 g/l), 20 DAT, LOLMU, Table X4, read-out: % activity, solo application", "value": 0, "unit": "%"}, {"measurement": "pest or weed control at 31.25 g/ha", "setting": "Lolium multiflorum; read-out: % activity", "value": 0, "unit": "%"}, {"measurement": "pest or weed control at 62.5 g/ha", "setting": "Lolium multiflorum; read-out: % activity", "value": 0, "unit": "%"}, {"measurement": "pest or weed control at 125 g/ha", "setting": "Lolium multiflorum; read-out: % activity", "value": 0, "unit": "%"}, {"measurement": "pest or weed control at 250 g/ha", "setting": "Lolium multiflorum; read-out: % activity", "value": 0, "unit": "%"}, {"measurement": "inhibition at 31.25 g/ha", "setting": "Papaver rhoeas", "value": 40, "unit": "%"}, {"measurement": "pest or weed control at 31.25 g/ha", "setting": "Brachiaria decumbens", "value": 0, "unit": "%"}, {"measurement": "pest or weed control at 62.5 g/ha", "setting": "Brachiaria decumbens", "value": 0, "unit": "%"}, {"measurement": "pest or weed control at 125 g/ha", "setting": "Brachiaria decumbens", "value": 10, "unit": "%"}, {"measurement": "inhibition at 31.25 g/ha", "setting": "Setaria viridis; 31.25 gai/ha (EC 235 g/l)", "value": 0, "unit": "%"}, {"measurement": "inhibition at 250 g/ha", "setting": "Setaria viridis; 250 gai/ha (EC 235 g/l)", "value": 0, "unit": "%"}]}]}
